Key:
[1] = target: T1, MMP-2 (Homo sapiens, UniProt P08253); experiment: In vitro MMP-2 inhibition test; type: biochemical
T1 construct: purchased R&D Systems 902-MP
T1 sequence (P08253 110-660): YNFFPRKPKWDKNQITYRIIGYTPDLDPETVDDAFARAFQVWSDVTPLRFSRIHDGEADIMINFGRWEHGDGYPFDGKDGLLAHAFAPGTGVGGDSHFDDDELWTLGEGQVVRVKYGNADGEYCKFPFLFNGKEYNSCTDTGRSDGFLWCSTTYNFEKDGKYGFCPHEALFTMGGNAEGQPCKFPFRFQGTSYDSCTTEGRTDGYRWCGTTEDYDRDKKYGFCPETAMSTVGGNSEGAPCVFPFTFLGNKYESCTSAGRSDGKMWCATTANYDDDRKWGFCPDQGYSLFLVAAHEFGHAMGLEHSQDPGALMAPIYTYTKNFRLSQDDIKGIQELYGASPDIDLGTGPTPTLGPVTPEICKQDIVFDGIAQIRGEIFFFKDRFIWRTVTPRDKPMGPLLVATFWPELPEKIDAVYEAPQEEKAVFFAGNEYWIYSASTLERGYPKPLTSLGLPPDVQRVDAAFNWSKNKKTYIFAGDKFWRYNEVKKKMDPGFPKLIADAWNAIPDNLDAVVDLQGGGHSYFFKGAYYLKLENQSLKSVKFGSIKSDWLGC
From the text: (§1) The MMP-mediated amidolytic cleavage of a suitable peptide substrate leads to an increase in fluorescent light here too. The signal intensity of the fluorescent light is directly proportional to the enzyme activity. The active concentration of a test compound at which half the enzyme is inhibited (50% signal intensity of the fluorescent light) is reported as the IC50 value.
(§2) Recombinant MMP-2 (from R&D Systems, 902-MP) is chemically activated in accordance with the manufacturer's instructions using APMA. 1 μl of the test compound to be analysed (as a solution in DMSO, suitable concentrations, for example, 1 nM to 30 μM) is pipetted into 24 μl of activated enzyme (final concentration, for example, 2 nM) in reaction buffer (50 mM Tris/HCl pH 7.5, 10 mM CaCl2, 150 mM NaCl, 0.05% Brij®-35) in a white 384-hole microtiter plate (MTP). The enzymatic reaction is started by adding the intramolecularly quenched Mca-Pro-Leu-Gly-Leu-Dpa(Dnp)-Ala-Arg-NH2 substrate (final concentration, for example, 10 μM; R&D Systems, ES-001), so as to result in a total test volume of 50 μl. The course of the MMP-2 reaction is measured by measuring the fluorescence intensity (excitation 320 nm, emission 410 nm) over a suitable period of time (for example over 120 min at a temperature of 32° C.).

[2] = target: T2, MMP-10 (Homo sapiens, UniProt P09238); experiment: In vitro MMP-10 inhibition test; type: biochemical
T2 construct: purchased R&D Systems 910-MP
T2 sequence (P09238 99-476): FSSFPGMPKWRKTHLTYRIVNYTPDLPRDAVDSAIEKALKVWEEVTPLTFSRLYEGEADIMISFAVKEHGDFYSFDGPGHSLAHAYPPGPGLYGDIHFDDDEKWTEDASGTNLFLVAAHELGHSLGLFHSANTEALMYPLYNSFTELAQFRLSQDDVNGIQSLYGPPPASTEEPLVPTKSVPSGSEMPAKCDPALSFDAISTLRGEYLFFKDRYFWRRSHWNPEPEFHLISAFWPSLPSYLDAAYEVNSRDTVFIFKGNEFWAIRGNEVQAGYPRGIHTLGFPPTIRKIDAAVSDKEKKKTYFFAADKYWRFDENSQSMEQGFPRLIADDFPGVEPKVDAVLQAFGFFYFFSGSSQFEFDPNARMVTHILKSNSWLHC
From the text: as §1
as §2, with “MMP-10” for “MMP-2”, “910-MP)” for “902-MP)”, “Mca-Arg-Pro-Lys-Pro-Val-Glu-Nval-Trp-Arg-Lys(Dnp)-NH2” for “Mca-Pro-Leu-Gly-Leu-Dpa(Dnp)-Ala-Arg-NH2”, “ES-002),” for “ES-001),”

Row | IC50 [1] [nM] | IC50 [2] [nM] | Compound
1 | 42 | 15 | O=C(O)[C@H]1[C@H](Cn2nnc3ccc(C(F)(F)F)cc3c2=O)CC[C@@H]1C(=O)c1ccc(OCc2ccc(F)cc2)cc1 (racemic) [Example 12, (+/−)-(1RS,2RS,5SR)-2-{4-[(4-Fluorobenzyl)oxy]benzoyl}-5-{[4-oxo-6-(trifluoromethyl)-1,2,3-benzotriazin-3(4H)-yl]methyl}cyclopentanecarboxylic acid]
2 | 480 | 26 | Cc1cccc(COc2ccc(C(=O)[C@H]3CC[C@@H](Cn4nnc5ccc(C(F)(F)F)cc5c4=O)[C@@H]3C(=O)O)cc2)c1 (racemic) [Example 15, (+/−)-(1RS,2RS,5SR)-2-{4-[(3-Methylbenzyl)oxy]benzoyl}-5-{[4-oxo-6-(trifluoromethyl)-1,2,3-benzotriazin-3(4H)-yl]methyl}cyclopentanecarboxylic acid]
3 | 2000 | 200 | O=C(O)[C@H]1[C@H](Cn2nnc3ccc(C(F)(F)F)cc3c2=O)CC[C@@H]1C(=O)c1ccc(OCc2cccc(C(F)(F)F)c2)cc1 (racemic) [Example 18, (+/−)-(1RS,2SR,5RS)-2-{[4-Oxo-6-(trifluoromethyl)-1,2,3-benzotriazin-3(4H)-yl]methyl}-5-(4-{[3-(trifluoromethyl)benzyl]oxy}benzoyl)cyclopentanecarboxylic acid]
4 | 190 | 22 | CCCCCSc1ccc(C(=O)[C@H]2CC[C@@H](Cn3nnc4ccc(C(F)(F)F)cc4c3=O)[C@@H]2C(=O)O)cc1 (racemic) [Example 88, (+/−)-(1RS,2SR,5RS)-2-{[4-Oxo-6-(trifluoromethyl)-1,2,3-benzotriazin-3(4H)-yl]methyl}-5-[4-(pentylsulphanyl)benzoyl]cyclopentanecarboxylic acid]
5 | 270 | 39 | COc1cccc(COc2ccc(C(=O)[C@H]3CC[C@@H](Cn4nnc5ccc(C)cc5c4=O)[C@@H]3C(=O)O)cc2)c1 (racemic) [Example 106, (+/−)-(1RS,2RS,5SR)-2-{4-[(3-Methoxybenzyl)oxy]benzoyl}-5-[(6-methyl-4-oxo-1,2,3-benzotriazin-3(4H)-yl)methyl]cyclopentanecarboxylic acid]
6 | 80 | 22 | O=C(O)[C@@H]1[C@@H](Cn2nnc3ccc(C(F)(F)F)cc3c2=O)CC[C@H]1C(=O)c1ccc(OCc2ccc(F)cc2)cc1 (single isomer, unassigned) [Example 13, (+)-(1RS,2RS,5SR)-2-{4-[(4-Fluorobenzyl)oxy]benzoyl}-5-{[4-oxo-6-(trifluoromethyl)-1,2,3-benzotriazin-3(4H)-yl]methyl}cyclopentanecarboxylic acid]
7 | 970 | 37 | Cc1cccc(COc2ccc(C(=O)[C@@H]3CC[C@H](Cn4nnc5ccc(C(F)(F)F)cc5c4=O)[C@H]3C(=O)O)cc2)c1 (single isomer, unassigned) [Example 16, (+)-(1RS,2RS,5SR)-2-{4-[(3-Methylbenzyl)oxy]benzoyl}-5-{[4-oxo-6-(trifluoromethyl)-1,2,3-benzotriazin-3(4H)-yl]methyl}cyclopentanecarboxylic acid]
8 | 3800 | 270 | O=C(O)[C@@H]1[C@@H](Cn2nnc3ccc(C(F)(F)F)cc3c2=O)CC[C@H]1C(=O)c1ccc(OCc2cccc(C(F)(F)F)c2)cc1 (single isomer, unassigned) [Example 19, (+)-(1RS,2SR,5RS)-2-{[4-Oxo-6-(trifluoromethyl)-1,2,3-benzotriazin-3(4H)-yl]methyl}-5-(4-{[3-(trifluoromethyl)benzyl]oxy}benzoyl)cyclopentanecarboxylic acid]
9 | 79 | 19 | O=C(O)[C@@H]1[C@@H](Cn2nnc3ccc(C(F)(F)F)cc3c2=O)CC[C@H]1C(=O)c1ccc(OCc2ccc(Cl)cc2)cc1 (single isomer, unassigned) [Example 25, (+)-(1RS,2RS,5SR)-2-{4-[(4-Chlorobenzyl)oxy]benzoyl}-5-{[4-oxo-6-(trifluoromethyl)-1,2,3-benzotriazin-3(4H)-yl]methyl}cyclopentanecarboxylic acid]
10 | 450 | 53 | O=C(O)[C@@H]1[C@@H](Cn2nnc3ccc(C(F)(F)F)cc3c2=O)CC[C@H]1C(=O)c1ccc(OCc2cccc(N3CCOC3=O)c2)cc1 (single isomer, unassigned) [Example 35, (+)-(1RS,2RS,5SR)-2-(4-{[3-(2-Oxo-1,3-oxazolidin-3-yl)benzyl]oxy}benzoyl)-5-{[4-oxo-6-(trifluoromethyl)-1,2,3-benzotriazin-3(4H)-yl]methyl}cyclopentanecarboxylic acid]
11 | 270 | 28 | O=C(O)[C@@H]1[C@@H](Cn2nnc3ccc(C(F)(F)F)cc3c2=O)CC[C@H]1C(=O)c1ccc(OCC2CCCC2)cc1 (single isomer, unassigned) [Example 44, (+)-(1RS,2RS,5SR)-2-[4-(Cyclopentylmethoxy)benzoyl]-5-{[4-oxo-6-(trifluoromethyl)-1,2,3-benzotriazin-3(4H)-yl]methyl}cyclopentanecarboxylic acid]
12 | 1300 | 50 | O=C(O)[C@@H]1[C@@H](Cn2nnc3ccc(C(F)(F)F)cc3c2=O)CC[C@H]1C(=O)c1ccc(OCCC2CCCC2)cc1 (single isomer, unassigned) [Example 55, (+)-(1RS,2RS,5SR)-2-[4-(2-Cyclopentylethoxy)benzoyl]-5-{[4-oxo-6-(trifluoromethyl)-1,2,3-benzotriazin-3(4H)-yl]methyl}cyclopentanecarboxylic acid]
13 | 580 | 29 | CCCCCCOc1ccc(C(=O)[C@@H]2CC[C@H](Cn3nnc4ccc(C(F)(F)F)cc4c3=O)[C@H]2C(=O)O)cc1 (single isomer, unassigned) [Example 58, (+)-(1RS,2RS,5SR)-2-[4-(Hexyloxy)benzoyl]-5-{[4-oxo-6-(trifluoromethyl)-1,2,3-benzotriazin-3(4H)-yl]methyl}cyclopentanecarboxylic acid]
14 | 300 | 52 | COc1cccc(COc2ccc(C(=O)[C@@H]3CC[C@H](Cn4nnc5ccc(C)cc5c4=O)[C@H]3C(=O)O)cc2)c1 (single isomer, unassigned) [Example 107, (+)-(1RS,2RS,5SR)-2-{4-[(3-Methoxybenzyl)oxy]benzoyl}-5-[(6-methyl-4-oxo-1,2,3-benzotriazin-3(4H)-yl)methyl]cyclopentanecarboxylic acid]
15 | 4800 | 160 | (+)-(1RS,2RS,5SR)-2-{4-[Cyclohexyl)methyl)sulphanyl]benzoyl}-5-{[4-oxo-6-(trifluoromethyl)-1,2,3-benzotriazin-3(4H)-yl]methyl}cyclopentanecarboxylic acid [Example 86]

Row | Compound | IC50 [1] [nM] | IC50 [2] [nM]
16 | CCCCOc1ccc(C(=O)[C@@H]2CC[C@H](Cn3nnc4ccc(C(F)(F)F)cc4c3=O)[C@H]2C(=O)O)cc1 (single isomer, unassigned) [Example 67, (+)-(1RS,2RS,5SR)-2-(4-Butoxybenzoyl)-5-{[4-oxo-6-(trifluoromethyl)-1,2,3-benzotriazin-3(4H)-yl]methyl}cyclopentanecarboxylic acid] | 270 | 14

Source: patent publication US20170022171A1, “2,5-DISUBSTITUTED CYCLOPENTANECARBOXYLIC ACIDS AND THEIR USE” (Bayer Pharma Aktiengesellschaft, priority 2014, published 2017)
